Patent US20230073764A1, “COMPOSITION OF TANNIC ACID AND VITAMIN D AND METHODS OF USE” (Elastogenesis, LLC, priority 2021, published 2023)

Experiments:
human dermal fibroblasts [1] = assay: Immunodetection of elastin in cultured human dermal fibroblasts; type: cell-based
Protocol: (§1) Biological effects of tannic acid in the presence of hyaluronic acid or ferulic acid were tested on dermal fibroblasts derived from punch biopsies of healthy skin. All fibroblasts were isolated by allowing migration out of skin explants and passaged by trypsinization. Fibroblasts were maintained in alpha-minimum essential medium supplemented with 20 mM HEPES, 1% antibiotics and antimycotics, 1% L-Glutamate and 2% fetal bovine serum (FBS). Cells were plated ([…] cells/dish) to reach confluency and were cultured for 7 days in the presence or absence of hyaluronic acid (0.1%), ferulic acid ([…]), tannic acid (2 μg/mL), or a combination thereof.
(§2) Cell cultures prepared according to Example 1 maintained in the presence or absence of tannic acid, hyaluronic acid, or ferulic acid were fixed in cold 100% methanol at […] for detection of elastin or in 4% paraformaldehyde at room temperature for detection of collagen I. The multiple parallel cultures were incubated with […] of polyclonal antibody to tropoelastin (Elastin Products, Owensville, Mich.), or polyclonal antibody to collagen type I (Chemicon, Temecula, Calif.). Cultures were incubated with the respective fluorescein-conjugated goat anti-rabbit, goat anti-mouse, or rabbit anti-goat secondary antibodies. Nuclei were counter stained with propidium iodide (Sigma, St. Louis, Mo.). All cultures were examined with a Nikon Eclipse E1000 microscope attached to a cooled CCD camera (QImaging, Retiga EX) and analyzed with the computer-generated morphometric analysis system, in which the Image-Pro Plus software (Media Cybernetics, Silver Springs, Md.) estimates the proportion of areas marked with green fluorescence, in relation to the entire (1 square mm) analyzed field.
Cultured human dermal fibroblasts were grown in the presence or absence of tannic acid at low concentration (2 μg/mL) and high concentration (20 μg/mL). Immunodetection of elastin was performed as described in Example 2.
(§3) Cultured human dermal fibroblasts were grown in the presence of or absence of vitamin D (10^−7 M), tannic acid ([…]), or a combination of vitamin D and tannic acid (2 μg/mL) (FIGS. 2A-2B and FIGS. 3A-3C). Immunodetection of elastin was performed as described above.
Cultured human dermal fibroblasts were grown in the presence of or absence hyaluronic acid (0.1%), tannic acid (2 μg/mL), or a combination of hyaluronic acid (0.1%) and tannic acid (2 μg/mL). Immunodetection of elastin was performed as described above.
Cultured human dermal fibroblasts were grown in the presence or absence of ferulic acid (5 μg/mL), tannic acid (2 μg/mL), or a combination of ferulic acid (5 μg/mL) and tannic acid (2 μg/mL). Immunodetection of elastin and collagen I was performed as described above. Results are shown in FIGS. 5A-5C, and FIGS. 6A-6B for elastin and FIGS. 7A-7C and FIG. 8 for collagen.
Cultured human dermal fibroblasts were grown in the presence or absence of ferulic acid (20 μM), tannic acid (2 μg/mL), or copper sulfate (2 μM). Fibroblasts were also grown in presence of a combination of ferulic acid (20 μM) and copper sulfate (2 μM), a combination of ferulic acid (20 μM) and tannic acid (2 μg/mL), and a combination of tannic acid (2 μg/mL) and copper sulfate (2 μM). Immunodetection of elastin was performed as described above.

[2] = cited from earlier work
fibroblast cultures = assay: Tropoelastin in fibroblast cultures measured using PCR; type: cell-based, human; details: PCR after 18 hours; tannic acid added to cultures that contained vitamin D3
Protocol: FIG. 2A depicts the amount of tropoelastin in fibroblast cultures measured using PCR after 18 hours.
as §3

human dermal fibroblasts [3] = assay: Immunodetection of collagen I in cultured human dermal fibroblasts; type: cell-based; details: ferulic acid (5 μg/mL) alone
Protocol: as §1
as §2, with “All cultures were examined with a Nikon Eclipse E1000 microscope attached to a cooled CCD camera (QImaging, Retiga EX) and analyzed with the computer-generated morphometric analysis system, in which the Image-Pro Plus software (Media Cybernetics, Silver Springs, Md.) estimates the proportion of areas marked with green fluorescence, in relation to the entire (1 square mm) analyzed field.” left out

[4] = tannic acid (2 μg/mL) added to hyaluronic acid (0.1%)
[5] = tannic acid (2 μg/mL) added to vitamin D (10^−7 M)

Q: Which elastin production (human dermal fibroblasts [1]; vitamin D (10^−7 M) alone) does the source give for vitamin D [reference compound] here?
A: The elastin production was “causes inhibition of elastin production”.

Q: With hyaluronic acid as the compound, how does the elastin production (human dermal fibroblasts [1]; hyaluronic acid (0.1%) alone) read?
A: Its elastin production is “causes inhibition of elastin production”.

Q: With O=C(OC[C@H]1O[C@@H](OC(=O)c2cc(O)c(O)c(OC(=O)c3cc(O)c(O)c(O)c3)c2)[C@H](OC(=O)c2cc(O)c(O)c(OC(=O)c3cc(O)c(O)c(O)c3)c2)[C@@H](OC(=O)c2cc(O)c(O)c(OC(=O)c3cc(O)c(O)c(O)c3)c2)[C@@H]1OC(=O)c1cc(O)c(O)c(OC(=O)c2cc(O)c(O)c(O)c2)c1)c1cc(O)c(O)c(OC(=O)c2cc(O)c(O)c(O)c2)c1 [tannic acid] as the compound, how does the production of elastin (human dermal fibroblasts [1]; tannic acid (2 μg/mL) added to ferulic acid (5 μg/mL)) read?
A: Its production of elastin is “improved production of elastin even in the presence of ferulic acid”.

Q: And the elastin fiber formation (human dermal fibroblasts [1]; [4])?
A: The elastin fiber formation was “abolished the inhibitory effect of hyaluronic acid on elastin fiber formation”.

Q: What about the “net deposition of elastin” value (human dermal fibroblasts [1]; [4]) of the same compound?
A: Its value is “caused an improvement in net deposition of elastin”.

Q: And the elastin fiber formation (human dermal fibroblasts [1]; [5])?
A: Its elastin fiber formation is “abolished the inhibitory effect of vitamin D on elastin fiber formation”.

Q: What about the “net deposition of elastin” value (human dermal fibroblasts [1]; [5]) of the same compound?
A: Its value is “caused an improvement in net deposition of elastin”.

Q: And the elastin concentration (human dermal fibroblasts [1]; tannic acid at high concentration (20 μg/mL))?
A: The elastin concentration was “caused elastosis”.

Q: What about the elastin concentration (human dermal fibroblasts [1]; tannic acid at low concentration (2 μg/mL), compared to high concentration) of the same compound?
A: Its elastin concentration is “improved elastin concentration”.

Q: What about the pKa [2] of the same compound?
A: The pKa was “about 6”.

Q: And the amount of tropoelastin (fibroblast cultures)?
A: The amount of tropoelastin was “increased the amount of tropoelastin”.

Q: Which results are given for COc1cc(/C=C/C(=O)O)ccc1O [ferulic acid]?
A: concentrations of collagen (human dermal fibroblasts [3]): minimal effect on concentrations of collagen; concentrations of elastin (human dermal fibroblasts [1]; ferulic acid (5 μg/mL) alone): negative effect on concentrations of elastin; effect on elastin (human dermal fibroblasts [1]; ferulic acid (20 μM)): leads to a reduction in elastin

Q: With O=S(=O)([O-])[O-].[Cu+2] [copper sulfate, reference compound] as the compound, how does the effect on elastin (human dermal fibroblasts [1]; copper sulfate (2 μM)) read?
A: The effect on elastin was “little effect on elastin”.
